Key:
hM4 = biological target: T1, hM4 (Homo sapiens, UniProt P08173); type: cell-based; details: for loss of potency (fold): hM4 potency relative to 10a; for hM4 activity: replacement of the fluorine with other halogens
T1 sequence (P08173 1-479): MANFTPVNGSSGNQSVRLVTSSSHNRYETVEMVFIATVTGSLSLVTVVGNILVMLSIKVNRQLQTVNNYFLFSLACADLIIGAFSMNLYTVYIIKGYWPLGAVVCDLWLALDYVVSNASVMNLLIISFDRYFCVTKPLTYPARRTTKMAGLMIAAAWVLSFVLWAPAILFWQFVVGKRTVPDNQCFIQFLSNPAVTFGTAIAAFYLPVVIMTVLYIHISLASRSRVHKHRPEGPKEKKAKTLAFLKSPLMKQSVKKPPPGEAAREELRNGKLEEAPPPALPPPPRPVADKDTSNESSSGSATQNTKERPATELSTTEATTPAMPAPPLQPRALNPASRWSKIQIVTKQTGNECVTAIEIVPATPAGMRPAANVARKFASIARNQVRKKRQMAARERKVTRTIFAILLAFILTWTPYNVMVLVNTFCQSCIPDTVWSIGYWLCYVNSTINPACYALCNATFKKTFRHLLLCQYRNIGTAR

hM2 = biological target: T2, hM2 (Homo sapiens, UniProt P08172); assay: mAChR subtype selectivity / counter screen, hM2; type: cell-based
T2 sequence (P08172 1-466): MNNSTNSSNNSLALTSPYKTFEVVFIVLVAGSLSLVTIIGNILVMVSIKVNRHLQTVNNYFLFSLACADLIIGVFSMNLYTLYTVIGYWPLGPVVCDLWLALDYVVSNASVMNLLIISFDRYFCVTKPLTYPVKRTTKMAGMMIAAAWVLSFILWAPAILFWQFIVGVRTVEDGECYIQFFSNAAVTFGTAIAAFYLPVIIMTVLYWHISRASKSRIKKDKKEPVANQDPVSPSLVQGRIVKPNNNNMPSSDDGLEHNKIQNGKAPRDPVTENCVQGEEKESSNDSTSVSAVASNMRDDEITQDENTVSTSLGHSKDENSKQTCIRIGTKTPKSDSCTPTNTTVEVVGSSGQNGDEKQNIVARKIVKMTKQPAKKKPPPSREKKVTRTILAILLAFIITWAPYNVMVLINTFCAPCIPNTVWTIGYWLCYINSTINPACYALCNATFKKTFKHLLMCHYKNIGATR

loss of potency (fold) (hM4) | Compound | other results
~ 3.5 fold | COc1ccc(C2CN(C(=O)c3sc4nnc(C)c(C)c4c3N)C2)cc1 [Compound 10i] | 
~ 10 fold | Cc1nnc2sc(C(=O)N3CC(O)(c4ccccc4)C3)c(N)c2c1C [Compound 11a] | 
~ 6 fold | COC1(c2cccc(F)c2)CN(C(=O)c2sc3nnc(C)c(C)c3c2N)C1 [Compound 11b] | 

More lines, now with the values behind:

Compound | loss of potency (fold) (hM4) | other results
COc1cccc(C2CN(C(=O)c3sc4nnc(C)c(C)c4c3N)C2)c1 [Compound 10h] | > 100 fold | 
Cc1nnc2sc(C(=O)N3CC(c4ccc(F)cc4)C3)c(N)c2c1C [Compound 10l] |  | activity at hM2 (hM2): inactive
Cc1nnc2sc(C(=O)N3CC(c4ccc(Cl)cc4)C3)c(N)c2c1C [Compound 10m] |  | hM4 activity (hM4): complete loss of hM4 activity
Cc1nnc2sc(C(=O)N3CC(c4ccc(Br)cc4)C3)c(N)c2c1C [Compound 10n] |  | hM4 activity (hM4): complete loss of hM4 activity
